Results as given in paper PMC5456383 (PLoS ONE, 2017).
Like-named read-outs stand apart in the source and are kept apart here.

Assays:
[1] = Population pharmacokinetic modeling of caspofungin plasma concentrations in healthy cats (HPLC-MS/MS, NONMEM)
Procedure: (§1) Cats were housed individually and acclimatized to the clinical environment for three days prior to the start of the study with free access to food and water.
(§2) For drug administration, a peripheral catheter (22G IV radiopaque catheter; OPTIVA®, Smiths Medical International Ltd, Lanchashire, UK) was placed into a cephalic vein.
(§3) Blood samples were immediately centrifuged (12, 000 g for 5 min) and plasma was stored at -80°C until assay.
Pharmacokinetic model development employed nonlinear mixed-effects modeling using NONMEM version 7.3 [17], with the Wings for NONMEM 7.3interface (http://wfn.sourceforge.net) and IFort compiler. […] Data manipulation and post-run processing of NONMEM output was conducted using the R data analysis language (Version 3.2.2) and the packages ggplot2, GGally, foreign, tidyr, Hmisc, gdata, doBy, plyr, grid, stringr with associated dependencies [17–28].
The base pharmacokinetic model was developed in a step-wise manner. Pharmacokinetic models were coded using the built-in ADVAN subroutines of NONMEM. Linear kinetic models with 1 and 2 compartments were evaluated. The First Order Conditional Estimation (FOCE) method was used to fit models. The base model was selected on the basis of mechanistic plausibility, visual inspection of goodness-of-fit diagnostic plots, the precision of parameter estimates (se% <30% for fixed, <50% for random effects parameters), and the lowest value of the Akaike’s information criterion (AIC; Eq 1) in accordance with the number of parameters and the final NONMEM derived objective function value (OBJ). The base model was also required to pass the covariance step.
Unless stated otherwise, population parameter variability (PPV) was represented using an exponential error model (Eq 2): Pj=TVP*e^ηj (2) where Pj is the individual value for the parameter in the j^th individual, TVP is the typical population value of P and ηj is an independent random variable with a mean of zero and variance ω^2. PPV was systematically examined on each fixed-effect parameter. Models with and without covariance for P were investigated using the OMEGA BLOCK functionality of NONMEM.
The influence of the additive component of the error was also examined by a comparison with a proportional only error model.

[2] = system: clinical isolates of A. felis from cats with invasive aspergillosis; conditions: cited from earlier work
Source text: Echinocandins have concentration-dependent activity against Aspergillus spp.

[3] = parameters: Time at which steady state was achieved: dose or concentration left out as unconfirmed; conditions: cited from earlier work
[4] = system: invasive pulmonary aspergillosis; conditions: cited from earlier work
[5] = Tolerability of IV caspofungin in healthy cats (physical examination, blood count, biochemistry)
Procedure: as §1, §2, §3

[6] = caspofungin-treated patients with candidemia; cited from earlier work
[7] = concentration independent, cited from earlier work
Source text: The relationship between antifungal in vivo susceptibility, dosages, drug concentrations within various body compartments and toxicological effects are not completely understood. […] For example, in sino-orbital aspergillosis systemic therapy may not be sufficient to penetrate the site of infection and reduce fungal burden. In addition, our work here is based upon total plasma concentra ...

[8] = cats, 1 mg/kg IV infusion over 1 h, two-compartment model, scaled to 4 kg

CC[C@H](C)C[C@H](C)CCCCCCCCC(=O)N[C@H]1C[C@@H](O)[C@@H](NCCN)NC(=O)[C@@H]2[C@@H](O)CCN2C(=O)[C@H]([C@H](O)CCN)NC(=O)[C@H]([C@H](O)[C@@H](O)c2ccc(O)cc2)NC(=O)[C@@H]2C[C@@H](O)CN2C(=O)[C@H]([C@@H](C)O)NC1=O [caspofungin, caspofungin acetate]
clearance ([1]; both, domestic shorthair, plasma, iv, 1 mg/kg): 0.292 mL/min
Q (mL/h) * (WT/4)^0.75, inter-compartmental clearance, population estimate [1, 8]: 150 mL/h
V1 (mL) * (WT/4), central volume of distribution, population estimate [1, 8]: 214 mL
V2 (mL) * (WT/4), peripheral volume of distribution, population estimate [1, 8]: 143 mL
Time at which steady state was achieved ([1]; cats, daily IV dosing): approximately 72 h
MEC ([2]; clinical isolates of A. felis from cats, all except one isolate): less than 0.06 μg/mL
MEC ([2]; one clinical isolate of A. felis): 2 µg/mL
Clearance in the typical 70 kg human [3]: 10 mL/min
Trough concentration at steady state ([3]; humans given 70 mg/kg of caspofungin daily): 2.57 ± 0.34 µg/mL
Time at which steady state was achieved ([3]; humans given of caspofungin daily): during the third week of administration
Fungal burden versus mice dosed with 1 mg/kg q6 h ([4]; mice dosed with 1 mg/kg q24 h or 2 mg/kg q48 h): significantly lower fungal burdens
Effect on fungal growth at higher doses ([4]; mice, 4 mg/kg, Cmax: MEC >20): paradoxical effect on fungal growth resulting in increased burdens
Liver enzyme elevations ([5]; healthy cats, 1 mg/kg IV daily): did not occur in any cats
Tolerability ([5]; healthy cats, 1 mg/kg IV over 1 h, single and 7 daily doses): well tolerated
Changes on complete blood counts and multiple biochemical analyses ([5]; healthy cats, after consecutive daily dosing 1 mg/kg IV): no changes
Body temperature during minor transient hyperthermia ([5]; one cat, during the first infusion only, reference range 37.5–39.1°C): 39.6–39.8 °C
Diarrhoea ([5]; one cat, resolved within 24 h of the final infusion): mild transient diarrhoea
Frequency of chills [6]: 5.3%
Frequency of fever [6]: 7.5%
Frequency of liver enzyme elevations (ALT, AST or ALP) [6]: 13.9%
Frequency of nausea or vomiting [6]: 5.3%
Frequency of phlebitis [6]: 3.5%
Unbound fraction in serum ([7]; human serum): 3–4%
Unbound fraction in serum ([7]; mouse serum): 3–4%
